Data taken from patent publication US20130252890A1, “6,7-DIHYDRO-5H-BENZO[7]ANNULENE DERIVATIVES, PROCESS FOR PREPARATION THEREOF, PHARMACEUTICAL PREPARATIONS COMPRISING THEM, AND THE USE THEREOF FOR PRODUCTION OF MEDICAMENTS” (BAYER INTELLECTUAL PROPERTY GMBH, priority 2010, published 2013).

What follows are compounds tested against T1, oestrogen receptor (ER) (Homo sapiens, UniProt P03372) (assay: Anti-oestrogenic action in MVLN cells (inhibition of estradiol-induced luciferase)). Conditions: inhibition of estradiol-induced luciferase signal, value of Ex. 44 is a mean value, read-out: Antioestrogenic action in vitro: MVLN transactivation antagonism IC50.
T1 construct: These MVLN cells express, along with the functional oestrogen receptor (ER), a reporter construct; endogenous in cells; host or cells: MVLN cells (MCF7 derivative carrying a luciferase reporter construct)
T1 sequence (P03372 1-595): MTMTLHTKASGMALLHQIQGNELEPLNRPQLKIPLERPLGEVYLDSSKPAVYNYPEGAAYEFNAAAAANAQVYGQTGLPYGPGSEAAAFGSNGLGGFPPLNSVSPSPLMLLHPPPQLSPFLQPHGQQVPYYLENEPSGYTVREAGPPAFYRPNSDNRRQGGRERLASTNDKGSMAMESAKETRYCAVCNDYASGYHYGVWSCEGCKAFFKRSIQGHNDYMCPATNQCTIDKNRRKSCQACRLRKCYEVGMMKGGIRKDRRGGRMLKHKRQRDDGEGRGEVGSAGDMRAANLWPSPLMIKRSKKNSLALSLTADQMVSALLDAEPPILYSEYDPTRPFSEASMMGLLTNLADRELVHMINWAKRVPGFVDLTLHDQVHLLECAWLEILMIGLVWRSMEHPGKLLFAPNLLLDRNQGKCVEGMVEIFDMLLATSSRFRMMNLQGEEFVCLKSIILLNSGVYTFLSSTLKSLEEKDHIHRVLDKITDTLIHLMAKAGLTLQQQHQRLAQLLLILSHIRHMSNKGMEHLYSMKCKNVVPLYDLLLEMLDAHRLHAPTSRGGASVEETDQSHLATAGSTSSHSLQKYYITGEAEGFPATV
Assay type: cell-based
How it was run: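 Inhibition of estradiol-driven luciferase expression was measured with compounds co-applied alongside oestrogen. Reporter system: MCF7-derived MVLN cells expressing endogenous functional ER and an ER-responsive luciferase construct.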

| Structure (SMILES) | IC50 [µM] |
| --- | --- |
| O=S(=O)(CCCCN(CCO)CCCCCCC1=C(c2ccc(F)cc2)CCCc2cc(O)ccc21)CCC(F)(C(F)(F)F)C(F)(F)F [Example 109, 8-(4-Fluorophenyl)-9-{6-[(2-hydroxyethyl)(4-{[3,4,4,4-tetrafluoro-3-(trifluoromethyl)butyl]sulphonyl}butyl)amino]hexyl}-6,7-dihydro-5H-benzo[7]annulen-3-ol] | 0.026 |
| CC(=O)N(CCCCCCC1=C(c2ccc(F)cc2)CCCc2cc(O)ccc21)CCCCS(=O)(=O)CCCC(F)(F)F [Example 89, N-{6-[8-(4-Fluorophenyl)-3-hydroxy-6,7-dihydro-5H-benzo[7]annulen-9-yl]hexyl}-N-{4-[(4,4,4-trifluorobutyl)sulphonyl]butyl}acetamide] | 0.054 |
| COC(=O)CCCN(CCCCCCC1=C(c2ccc(F)cc2)CCCc2cc(O)ccc21)CCCCS(=O)(=O)CCCC(F)(F)F [Example 88, Methyl-4-({6-[8-(4-fluorophenyl)-3-hydroxy-6,7-dihydro-5H-benzo[7]annulen-9-yl]hexyl}{4-[(4,4,4-trifluorobutyl)sulphonyl]butyl}amino)butanoate] | 0.024 |
| O=S(=O)(CCCCN(CCO)CCCCCCC1=C(c2ccc(F)cc2)CCCc2cc(O)c(F)cc21)CCC(F)(C(F)(F)F)C(F)(F)F [Example 138, 2-Fluoro-8-(4-fluorophenyl)-9-{6-[(2-hydroxyethyl)(4-{[3,4,4,4-tetrafluoro-3-(trifluoromethyl)butyl]sulphonyl}butyl)amino]hexyl}-6,7-dihydro-5H-benzo[7]annulen-3-ol] | 0.021 |
| COCCCN(CCCCCCC1=C(c2ccc(F)cc2)CCCc2c1ccc(O)c2F)CCCS(=O)(=O)CCCC(F)(F)C(F)(F)F [Example 41, 4-Fluoro-8-(4-fluorophenyl)-9-{6-[(3-methoxypropyl){3-[(4,4,5,5,5-pentafluoropentyl)sulphonyl]propyl}amino]hexyl}-6,7-dihydro-5H-benzo[7]annulen-3-ol] | 0.042 |
| CN(CCCCCCC1=C(c2ccc(F)cc2)CCCc2c1ccc(O)c2F)CCCS(=O)(=O)CCCC(F)(F)C(F)(F)F [Example 33, 4-Fluoro-8-(4-fluorophenyl)-9-[6-(methyl{3-[(4,4,5,5,5-pentafluoropentyl)sulphonyl]propyl}amino)hexyl]-6,7-dihydro-5H-benzo[7]annulen-3-ol] | 0.011 |
| CN(CCCCCCC1=C(c2ccc(F)cc2)CCCc2c1ccc(O)c2F)CCC[S+]([O-])CCC(F)(F)F (stereo not drawn) [Example 36, 4-Fluoro-8-(4-fluorophenyl)-9-[6-(methyl{3-[(3,3,3-trifluoropropyl)sulphinyl]propyl}amino)hexyl]-6,7-dihydro-5H-benzo[7]annulen-3-ol] | 0.035 |
| CN(CCCCCCC1=C(c2cc(F)cc(F)c2)CCCc2cc(O)ccc21)CCC[S+]([O-])CCCC(F)(F)C(F)(F)F (stereo not drawn) [Example 8, 8-(3,5-Difluorophenyl)-9-[6-(methyl{3-[(4,4,5,5,5-pentafluoropentyl)sulphinyl]propyl}amino)hexyl]-6,7-dihydro-5H-benzo[7]annulen-3-ol] | 0.012 |
| CC(C)(O)CN(CCCCCCC1=C(c2ccc(F)c(F)c2)CCCc2cc(O)ccc21)CCC[S+]([O-])CCC(F)(F)F (stereo not drawn) [Example 26, 8-(3,4-Difluorophenyl)-9-{6-[(2-hydroxy-2-methylpropyl){3-[(3,3,3-trifluoropropyl)sulphinyl]propyl}amino]hexyl}-6,7-dihydro-5H-benzo[7]annulen-3-ol] | 0.028 |
| [2H]C([2H])([2H])N(CCCCCCC1=C(c2ccc(F)cc2)CCCc2cc(O)ccc21)CCCS(=O)(=O)CCCCC(F)(F)F [Example 139, 8-(4-Fluorophenyl)-9-{6-[(^2H3)methyl{3-[(5,5,5-trifluoropentyl)sulphonyl]propyl}amino]hexyl}-6,7-dihydro-5H-benzo[7]annulen-3-ol] | 0.007 |
| CN(CCCCCCC1=C(c2ccc(F)c(F)c2)CCCc2cc(O)ccc21)CCC[S+]([O-])CCC(F)(F)C(F)(F)F (stereo not drawn) [Example 18, 8-(3,4-Difluorophenyl)-9-[6-(methyl{3-[(3,3,4,4,4-pentafluorobutyl)sulphinyl]propyl}amino)hexyl]-6,7-dihydro-5H-benzo[7]annulen-3-ol] | 0.034 |
| COCCN(CCCCCCC1=C(c2cc(F)cc(F)c2)CCCc2cc(O)ccc21)CCCS(=O)(=O)CCCC(F)(F)C(F)(F)F [Example 15, 8-(3,5-Difluorophenyl)-9-{6-[(2-methoxyethyl){3-[(4,4,5,5,5-pentafluoropentyl)sulphonyl]propyl}amino]hexyl}-6,7-dihydro-5H-benzo[7]annulen-3-ol] | 0.026 |
| CN(CCCCCCC1=C(c2ccc(F)cc2)CCCc2cc(O)c(F)cc21)CCCCS(=O)(=O)CCCC(F)(F)F [Example 101, 2-Fluoro-8-(4-fluorophenyl)-9-[6-(methyl{4-[(4,4,4-trifluorobutyl)sulphonyl]butyl}amino)hexyl]-6,7-dihydro-5H-benzo[7]annulen-3-ol] | 0.006 |
| CN(CCCCCCC1=C(c2ccc(F)cc2)CCCc2cc(O)ccc21)CCCS(=O)(=O)C1CCC(F)(F)CC1 [Example 121, 9-{6-[{3-[(4,4-difluorocyclohexyl)sulphonyl]propyl}(methyl)amino]hexyl}-8-(4-fluorophenyl)-6,7-dihydro-5H-benzo[7]annulen-3-ol] | 0.041 |
| O=S(=O)(CCCN(CCCCCCC1=C(c2ccc(F)cc2)CCCc2c1ccc(O)c2F)CC(F)F)CCCC(F)(F)C(F)(F)F [Example 64, 9-{6-[(2,2-Difluoroethyl){3-[(4,4,5,5,5-pentafluoropentyl)sulphonyl]propyl}amino]hexyl}-4-fluoro-8-(4-fluorophenyl)-6,7-dihydro-5H-benzo[7]annulen-3-ol] | 0.086 |
| CN(CCCCCCC1=C(c2ccc(F)cc2F)CCCc2cc(O)ccc21)CCCS(=O)(=O)CCCC(F)(F)F [Example 134, 8-(2,4-Difluorophenyl)-9-[6-(methyl{3-[(4,4,4-trifluorobutyl)sulphonyl]propyl}amino)hexyl]-6,7-dihydro-5H-benzo[7]annulen-3-ol] | 0.005 |
| CN(CCCCCCC1=C(c2ccc(F)cc2F)CCCc2cc(O)ccc21)CCCCS(=O)(=O)CCC(F)(F)F [Example 131, 8-(2,4-Difluorophenyl)-9-[6-(methyl{4-[(3,3,3-trifluoropropyl)sulphonyl]butyl}amino)hexyl]-6,7-dihydro-5H-benzo[7]annulen-3-ol] | 0.003 |
| CN(CCCCCCC1=C(c2ccc(F)cc2)CCCc2cc(O)ccc21)CCCS(=O)(=O)CCCCCC(F)(F)F [Example 148, 8-(4-Fluorophenyl)-9-[6-(methyl{3-[(6,6,6-trifluorohexyl)sulphonyl]propyl}amino)hexyl]-6,7-dihydro-5H-benzo[7]annulen-3-ol] | 0.017 |
| CN(CCCCCCC1=C(c2ccc(F)cc2)CCCc2cc(O)c(F)cc21)CCCCS(=O)(=O)CCC(F)(F)F [Example 106, 2-Fluoro-8-(4-fluorophenyl)-9-[6-(methyl{4-[(3,3,3-trifluoropropyl)sulphonyl]butyl}amino)hexyl]-6,7-dihydro-5H-benzo[7]annulen-3-ol] | 0.01 |
| O=S(=O)(CCCN(CCO)CCCCCCC1=C(c2ccc(F)cc2)CCCc2c1ccc(O)c2F)CCC(F)(F)F [Example 61, 4-Fluoro-8-(4-fluorophenyl)-9-{6-[(2-hydroxyethyl){3-[(3,3,3-trifluoropropyl)sulphonyl]propyl}amino]hexyl}-6,7-dihydro-5H-benzo[7]annulen-3-ol] | 0.024 |
| CN(CCCCCCC1=C(c2ccc(F)cc2)CCCc2c1ccc(O)c2F)CCCC[S+]([O-])CCCC(F)(F)C(F)(F)F (stereo not drawn) [Example 35, 4-Fluoro-8-(4-fluorophenyl)-9-[6-(methyl{4-[(4,4,5,5,5-pentafluoropentyl)sulphinyl]butyl}amino)hexyl]-6,7-dihydro-5H-benzo[7]annulen-3-ol] | 0.01 |
| CN(CCCCCCC1=C(c2cc(F)cc(F)c2)CCCc2cc(O)ccc21)CCC[S+]([O-])CCC(F)(F)F (stereo not drawn) [Example 5, 8-(3,5-Difluorophenyl)-9-[6-(methyl{3-[(3,3,3-trifluoropropyl)sulphinyl]propyl}amino)hexyl]-6,7-dihydro-5H-benzo[7]annulen-3-ol] | 0.046 |
| CC(C)(O)CN(CCCCCCC1=C(c2ccc(F)cc2)CCCc2cc(O)ccc21)CCC[S+]([O-])CCC(F)(F)F (stereo not drawn) [Example 120, 8-(4-fluorophenyl)-9-{6-[(2-hydroxy-2-methylpropyl){3-[(3,3,3-trifluoropropyl)sulphinyl]propyl}amino)hexyl}-6,7-dihydro-5H-benzo[7]annulen-3-ol] | 0.056 |
| CN(CCCCCCC1=C(c2ccc(F)cc2F)CCCc2cc(O)ccc21)CCCCS(=O)(=O)CCC(F)(F)C(F)(F)F [Example 146, 8-(2,4-Difluorophenyl)-9-[6-(methyl{4-[(3,3,4,4,4-pentafluorobutyl)sulphonyl]-butyl}amino)hexyl]-6,7-dihydro-5H-benzo[7]annulen-3-ol] | 0.015 |
